In patent publication US7858349B2, “Anti-cancer compounds” (The Regents of the University of Colorado, priority 1999, dated 2010):
Where two headings read alike, the source gives them in different places.

Legend:
PC3 PC cells = experiment: Inhibition of PC3 tumor growth in vivo in nude mice; design: species or system athymic nude mice; key to PC3 In vivo % inhib.: an IC50 value of “0” represents no detectable anti-cancer activity for a drug in a given cell line; “Stim.” indicates the observation of a stimulatory activity on the growth of the cancer cell line; settings: percent inhibition of tumor growth in nude mice; prostate cancer; i.p. 5 mg/kg/every second day or 10 mg/kg/every fourth day
Description: Compounds having high in vitro cytotoxic activity were tested against implanted tumors in vivo. Athymic nude mice were implanted subcutaneously with suspensions (2 million SHP-77 SCLC cells, 1 million A549 NSCLC cells or 1.5 million PC3 PC cells) in Matrigel suspension. On the eighth day after tumor implantation groups of 5 mice bearing implants were injected intraperitoneally with the compounds being tested at 5 mg/kg/every second day or at 10 mg/kg/every fourth day; control animals were injected with an equal volume of isotonic saline. Less soluble compounds were initially dissolved in dimethyl sulfoxide (DMSO) and diluted with medium. In those cases the control injections contained the same concentration of DMSO. Tumor size was measured with a caliper three times per week. Tumor volume was calculated by the formula: Volume(cc)=3.14×(length)×(width)^2/6 At autopsy tumors were removed and weighed. Tumor inhibition was calculated on both weight and measurement basis. In each Table, an IC50 value of “0” represents no detectable anti-cancer activity for a drug in a given cell line and “Stim.” indicates the observation of a stimulatory activity on the growth of the cancer cell line.

SCLC strain SHP-77 = experiment: MTT assay for cell survival, SCLC SHP-77 in vitro; assay type: cell-based, human; settings: ED50 for killing of SCLC strain SHP-77 in vitro, 4 days, 0 = no detectable activity

Structure (SMILES) | PC3 In vivo % inhib. (PC3 PC cells) | IC50 (SCLC strain SHP-77; read-out: SCLC SHP-77 IC50) | IC50 (SCLC strain SHP-77; read-out: SHP-77 In vitro IC50)
COc1ccc2c(c1)c(CC(=O)NC(Cc1ccc(OCc3c(Cl)cccc3Cl)cc1)C(=O)NC1CN3CCC1CC3)c(C)n2C(=O)c1ccc(Cl)cc1 [Analog M-1588, Indo-OC2Y-(R)-Aqu] | 8% | 3.9 µM | –
CC1(C)CC(NC(=O)[C@H](Cc2ccc(OCc3c(Cl)cccc3Cl)cc2)NC(=O)c2ccc3c(c2)C(=O)c2ccccc2C3=O)CC(C)(C)N1 [Analog M-1618, Aq2c-OC2Y-Atmp] | 10% | 2.2 µM | –
CC1(C)CC(NC(=O)C(Cc2ccc(OCc3c(Cl)cccc3Cl)cc2)NC(=O)C=Cc2ccc(N)cc2)CC(C)(C)N1 (stereo not drawn) [Analog M-1648, Pac-OC2Y-Atmp] | 28% | 7.6 µM | –
O=C(N[C@@H]1CN2CCC1CC2)C(Cc1ccc(OCc2c(Cl)cccc2Cl)cc1)NC(=O)C(c1ccccc1)C1CCCCC1 (single isomer, unassigned) [M-1550 #2] | Stim. | 4 µM | –
O=C(/C=C/c1c(F)c(F)c(F)c(F)c1F)N[C@@H](Cc1ccc(OCc2c(Cl)cccc2Cl)cc1)C(=O)N1CCN(c2cccc(Cl)c2Cl)CC1 [Analog M-1578, F5c-OC2Y-Dcpp] | Stim. | – | –
O=C([C@H](Cc1ccc(OCc2c(Cl)cccc2Cl)cc1)NC(=O)C12CC3CC(CC(C3)C1)C2)N1CCN(c2ncccn2)CC1 [Analog M-1680, Aca-OC2Y-Pmpz] | – | 33 µM | –
CC1(C)CC(NC(=O)C(Cc2ccc(OCc3c(Cl)cccc3Cl)cc2)NC(=O)CCCCC2SCC3NC(=O)NC32)CC(C)(C)N1 (stereo not drawn) [Analog M-1436, Biot-OC2Y-Atmp] | – | > 60 µM | –
O=C(C=Cc1c(F)c(F)c(F)c(F)c1F)NC1(C(=O)N(Cc2ccccn2)Cc2ccccn2)Cc2ccccc2C1 [Analog M-1218, F5c-Aic-Dpic] | – | – | 14 µM
CC1(C)CC(NC(=O)[C@H](Cc2ccc(C#N)cc2)NC(=O)CCCc2ccc(N(CCCl)CCCl)cc2)CC(C)(C)N1 [Analog M-1500, Chl-PCNF-Atmp] | – | 25 µM | –
O=C(C=Cc1c(F)c(F)c(F)c(F)c1F)NC(C(=O)N1CCN(Cc2c(F)c(F)c(F)c(F)c2F)CC1)C1Cc2ccccc2C1 (stereo not drawn) [Analog M-1690, F5c-Igl-Pipz(F5b)] | – | 25 µM | –
CC1(C)CC(NC(=O)C(Cc2ccc(OCc3c(Cl)cccc3Cl)cc2)NC(=O)C=Cc2ccccc2Cl)CC(C)(C)N1 (stereo not drawn) [Analog M-1652, 2Ccn-OC2Y-Atmp] | – | 4.1 µM | –
CC1CN(C(=O)C(Cc2ccc(OCc3c(Cl)cccc3Cl)cc2)NC(=O)C2CCn3c(C(=O)c4ccccc4)ccc32)CC(C)N1Cc1ccccc1 (stereo not drawn) [Analog M-1664, Ktlc-OC2Y-cDmbp] | – | > 60 µM | –
CO[C@@](C(=O)NC(Cc1ccc(OCc2c(Cl)cccc2Cl)cc1)C(=O)NC1CC(C)(C)NC(C)(C)C1)(c1ccccc1)C(F)(F)F (stereo partly drawn) [Analog M-1752, (R)-MTPA-OC2Y-Atmp] | – | 4 µM | –
CC1CN(C(=O)C(Cc2ccc(F)cc2)NC(=O)C=Cc2c(F)c(F)c(F)c(F)c2F)CC(C)N1 (stereo not drawn) [Analog M-1160, F5c-PFF-Dmpz] | – | – | 24 µM
CC1(C)CC(NC(=O)C(NC(=O)C2CCn3c(C(=O)c4ccccc4)ccc32)C2Cc3ccccc3C2)CC(C)(C)N1 (stereo not drawn) [Analog M-1686, Ktlc-Igl-Atmp] | – | 14 µM | –
CC1CN(C(=O)C(Cc2ccc(OCc3c(Cl)cccc3Cl)cc2)NC(=O)C(=Cc2ccccc2)c2ccccc2)CC(C)N1Cc1ccccc1 (stereo not drawn) [Analog M-1662, Pcn-OC2Y-cDmbp] | – | 20 µM | –
CN1CCN(CCCNC(=O)[C@H](Cc2ccc(OCc3c(Cl)cccc3Cl)cc2)NC(=O)C23CC4CC(CC(C4)C2)C3)CC1 [Analog M-1676, Aca-OC2Y-Amp] | – | 6.2 µM | –
CC1(C)CC(NC(=O)[C@H](Cc2ccc(OCc3c(Cl)cccc3Cl)cc2)NC(=O)C(Cl)Cl)CC(C)(C)N1 [Analog M-1692, Dcla-OC2Y-Atmp] | – | 7.2 µM | –
O=C(CCCC[C@@H]1SC[C@@H]2NC(=O)N[C@@H]21)N[C@@H](Cc1ccc(OCc2c(Cl)cccc2Cl)cc1)C(=O)N1CCN(C/C=C/c2ccccc2)CC1 [Analog M-1656, Biot-OC2Y-tCip] | – | 5.5 µM | –
CC1(C)CC(NC(=O)C(Cc2ccc(OCc3c(Cl)cccc3Cl)cc2)NC(=O)Cc2ccc(-c3ccccc3)cc2)CC(C)(C)N1 (stereo not drawn) [Analog M-1782, Bipa-OC2Y-Atmp] | – | 3 µM | –
O=C(CC12CC3CC(CC(C3)C1)C2)N[C@@H](Cc1ccc(OCc2c(Cl)cccc2Cl)cc1)C(=O)N1CCN(c2ncccn2)CC1 [Analog M-1672, Aaa-OC2Y-Pmpz] | – | > 50 µM | –
C=CC(=O)NC(NC(=O)C=C)C(=O)NC(Cc1ccc(OCc2c(Cl)cccc2Cl)cc1)C(=O)NC1CC(C)(C)NC(C)(C)C1 (stereo not drawn) [Analog M-1718, Baaa-OC2Y-Atmp] | – | > 60 µM | –
CC1(C)CC(NC(=O)C(Cc2ccc(I)cc2)NC(=O)C=Cc2c(F)c(F)c(F)c(F)c2F)CC(C)(C)N1 (stereo not drawn) [Analog M-1142, F5c-PIF-Atmp] | – | – | 7.2 µM
CC1(C)CC(NC(=O)C(Cc2ccc(OP(=O)(O)OCc3ccccc3)cc2)NC(=O)C=Cc2c(F)c(F)c(F)c(F)c2F)CC(C)(C)N1 (stereo not drawn) [Analog M-1080, F5c-OBPY-Atmp] | – | – | > 60 µM

Structure (SMILES) | PC3 In vivo % inhib. (PC3 PC cells) | IC50 (SCLC strain SHP-77; read-out: SCLC SHP-77 IC50) | IC50 (SCLC strain SHP-77; read-out: SHP-77 In vitro IC50)
CC1(C)CC(NC(=O)C(Cc2ccc(-c3ccccc3)cc2)NC(=O)C(=Cc2ccccc2)c2ccccc2)CC(C)(C)N1 (stereo not drawn) [Analog M-1764, Pcn-Bip-Atmp] | – | 2.5 µM | –
CC1(C)CC(NC(=O)C(Cc2ccc(OCc3c(Cl)cccc3Cl)cc2)NC(=O)Cc2ccc3ccccc3c2)CC(C)(C)N1 (stereo not drawn) [Analog M-1710, 2Nala-OC2Y-Atmp] | – | 1.7 µM | –
CC1(C)CC(NC(=O)C(Cc2ccc(C#N)cc2)NC(=O)C=Cc2cc(F)cc(F)c2F)CC(C)(C)N1 (stereo not drawn) [Analog M-1504, F3c-PCNF-Atmp] | – | > 60 µM | –
CC1(C)CC(NC(=O)C(Cc2ccc(OCc3c(Cl)cccc3Cl)cc2)NC(=O)C(F)(F)C(F)(F)C(F)(F)C(=O)O)CC(C)(C)N1 (stereo not drawn) [M-1098 #2, CHFB-OC2Y-Atmp] | – | – | 6.8 µM
O=C(/C=C/c1c(F)c(F)c(F)c(F)c1F)N[C@@H](Cc1ccc(OCc2c(Cl)cccc2Cl)cc1)C(=O)N1CCN(C/C=C/c2ccccc2)CC1 [Analog M-1564, F5c-OC2Y-tCip] | – | 4 µM | –
CC1(C)CC(NC(=O)C(Cc2ccc(OCc3c(Cl)cccc3Cl)cc2)NC(=O)Cc2cccc3ccccc23)CC(C)(C)N1 (stereo not drawn) [Analog M-1708, 1Nala-OC2Y-Atmp] | – | 7.2 µM | –
CC1(C)CC(NC(=O)C(NC(=O)C=Cc2c(F)c(F)c(F)c(F)c2F)C(c2ccccc2)c2ccccc2)CC(C)(C)N1 (stereo not drawn) [Analog M-1150, F5c-Dip-Atmp] | – | – | 5 µM
CC1(C)CC(NC(=O)C(CCc2ccccc2)NC(=O)C=Cc2c(F)c(F)c(F)c(F)c2F)CC(C)(C)N1 (stereo not drawn) [Analog M-1176, F5c-hPhe-Atmp] | – | – | 14 µM
O=C(N[C@H]1CN2CCC1CC2)C(Cc1ccc(OCc2c(Cl)cccc2Cl)cc1)NC(=O)C(c1ccccc1)C1CCCCC1 (single isomer, unassigned) [M-1548 #1] | – | 4 µM | –
O=C(C=Cc1c(F)c(F)c(F)c(F)c1F)NC(Cc1c(F)c(F)c(F)c(F)c1F)C(=O)NC1CCN(Cc2ccccc2)CC1 (stereo not drawn) [Analog M-1182, F5c-F5F-Abzp] | – | – | 19.5 µM
Cc1ccc(CSC(C)(C)C(NC(=O)C(C2CCCCC2)C2CCCCC2)C(=O)NC2CC(C)(C)NC(C)(C)C2)cc1 (stereo not drawn) [Analog M-1514, Dca-Pen(Mbzl)-Atmp] | – | 7.3 µM | –
CC1(C)CC(NC(=O)C(Cc2c[nH]c3ccccc23)NC(=O)C(N)CCC(=O)O)CC(C)(C)N1 (stereo not drawn) [Analog M-1120, Glu-Trp-Atmp] | – | – | > 60 µM
CC1(C)CC(NC(=O)C(Cc2ccc(-c3ccccc3)cc2)NC(=O)Cc2ccc(-c3ccccc3)cc2)CC(C)(C)N1 (stereo not drawn) [Analog M-1796, Bipa-Bip-Atmp] | – | 1.5 µM | –
CN1CCN(C(=O)C(Cc2ccc(F)cc2)NC(=O)C=Cc2c(F)c(F)c(F)c(F)c2F)CC1 (stereo not drawn) [Analog M-1158, F5c-PFF-Mpz] | – | – | 28 µM
CN1CCN(CCCNC(=O)[C@H](Cc2ccc(OCc3c(Cl)cccc3Cl)cc2)NC(=O)C(=Cc2ccccc2)c2ccccc2)CC1 [Analog M-1658, Pcn-OC2Y-Amp] | – | 10 µM | –
CC1(C)CC(NC(=O)[C@H](Cc2ccc(C#N)cc2)NC(=O)C(C2CCCCC2)C2CCCCC2)CC(C)(C)N1 [Analog M-1516, Dca-PCNF-Atmp] | – | 11 µM | –
CC1(C)CC(NC(=O)C(Cc2ccc(C#N)cc2)NC(=O)CCCc2c[nH]c3ccccc23)CC(C)(C)N1 (stereo not drawn) [Analog M-1476, 3Ibu-PCNF-Atmp] | – | > 60 µM | –
CN1CCN(CCCNC(=O)[C@H](Cc2ccc(OCc3c(Cl)cccc3Cl)cc2)NC(=O)C2CCn3c(C(=O)c4ccccc4)ccc32)CC1 (stereo partly drawn) [Analog M-1674, Ktlc-OC2Y-Amp] | – | 3.2 µM | –
COC(=O)CN1C(C)CN(C(=O)C(Cc2ccc(F)cc2)NC(=O)C=Cc2c(F)c(F)c(F)c(F)c2F)CC1C (stereo not drawn) [Analog M-1432, F5c-PFF-Dmmp] | – | 18 µM | –
O=C(C=Cc1cccnc1)NC(Cc1ccc(F)cc1)C(=O)N1CCN(c2ccc(Cl)cc2)CC1 (stereo not drawn) [Analog M-1212, Pya-PFF-Cpp] | – | – | 10 µM
CCC(C(=O)NC(Cc1ccc(OCc2c(Cl)cccc2Cl)cc1)C(=O)NC1CC(C)(C)NC(C)(C)C1)C1CCCCC1 (stereo not drawn) [Analog M-1746, Chbu-OC2Y-Atmp] | – | 1.6 µM | –
CC1(C)CC(NC(=O)C(NC(=O)c2ccc(B(O)O)cc2)C2Cc3ccccc3C2)CC(C)(C)N1 (stereo not drawn) [Analog M-1374, Bbz-Igl-Atmp] | – | > 60 µM | –
CC1(C)CC(NC(=O)C(Cc2ccc(OCc3c(Cl)cccc3Cl)cc2)NC(=O)CC=Cc2ccccc2)CC(C)(C)N1 (stereo not drawn) [Analog M-1780, Saa-OC2Y-Atmp] | – | 1.8 µM | –
